# Columns and labels:
# [1] = Metabolism in rhesus monkey liver microsomes; assay type: in vitro ADME; conditions: rhesus monkey, liver microsomes; 1 μM substrate, 0.4 mg/mL microsomal protein, NADPH, 37 °C, 60 min; average of three replicates; read-out: CLint
# Protocol: (§1) Following the protocols described by Charman et al.,[28]1 was incubated at 37 °C with human, rat, and rhesus monkey liver microsomes. For the determination of intrinsic clearance, the substrate concentration was 1 μM and the protein concentration was 0.4 mg/mL; for qualitative metabolite identification studies, the substrate and protein concentrations were 10 μM and 1 mg/mL, respectively. The reaction was initiated by the addition of an NADPH-regenerating buffer system, and the samples were incubated for up to 60 (for Clint determination) or 180 min (for additional metabolite identification). Samples without the test compound and without NADPH were also incubated and used as controls. The reaction was quenched by protein precipitation with the addition of an equal volume of ice-cold acetonitrile solution (containing diazepam as an internal standard), followed by vortexing and centrifugation for 3 min at 10000 rpm. The supernatant was removed and analyzed by LC/MS. LC/MS analysis was conducted using a Waters Micromass Xevo G2 QTOF MS coupled to a Waters Acquity UPLC. For metabolite identification, a Supelco Ascentis Express Amide column (50 × 2.1 mm, 2.7 μm) was used with an acetonitrile–water gradient (containing 0.05% formic acid), a flow rate of 0.4 mL/min, a gradient cycle time of 6 min, and an injection volume of 5 μL. MS analysis was conducted using positive mode electrospray ionization under MSE acquisition mode, which allows simultaneous acquisition of MS spectra at low and high collision energies. The identity of putative metabolites was confirmed by the accurate mass and a comparison of the retention times and MS/MS fragmentation patterns with authentic metabolites where available. For metabolite quantitation, the method described below for the analysis of plasma samples was used.
# P. vivax = test system: P. vivax; set-up: method as in doi:10.1016/0035-9203(74)90194-1; conditions: 7-day course at 10 mg/(kg day); cited from earlier work
# [2] = Metabolism in human liver microsomes; assay type: in vitro ADME; conditions: 1 μM substrate, NADPH
# Protocol: as §1
# [3] = test system: P. vivax liver-stage parasites; assay: P. vivax liver-stage in vitro assay, radical cure mode; assay type: cell-based, Plasmodium vivax; conditions: 20 μM, two independent runs, threshold for activity 75% inhibition
# Protocol: Compound 1 and its metabolites were tested in both prophylactic and radical cure modes for activity against P. vivax liver-stage parasites.[16],[17] In the prophylactic assay, compounds are added the day after sporozoite invasion into hepatocytes in order to characterize the compound activity against established liver forms with a parasitophorous vacuole membrane (as opposed to activity on preinvasion sporozoites) and prior to complete maturation of hypnozoites into drug-insensitive dormant forms, which appear at about 5 days postinvasion.[18] In the radical cure assay, compounds are added at day 5 postinfection to characterize activity against late-stage schizonts and mature PI4K inhibitor-insensitive hypnozoites.[19] In these experiments, the threshold for activity is 75% inhibition. […] Similarly, as previously described,[20] 10 μM concentrations of 1 and its metabolites were also tested for activity against P. cynomolgi schizont (large forms) and hypnozoite (small forms) liver-stage parasites cultured in rhesus monkey hepatocytes. In these experiments, the threshold for activity is 50% inhibition.
# Compounds were prepared as 20 mM stock solutions in DMSO and tested in an eight-point semilog (1/3) dilution series from 20 μM in 384-well assay plates in both prophylactic and radical cure mode against P. vivax liver-stage parasites as previously described.[16] Following ethical approval from the Institutional Ethics Committee of the Thai Ministry of Public Health, the Ethical Review Committee of Faculty of Tropical Medicine, Mahidol University (TMEC 11-008 and 14-016), the Oxford Tropical Medicine Ethical Committee, Oxford University, England (OxTREC 17-11 and 40–14), and the Cambodian National Ethics Committee for Health Research (101NECHR), isolates of P. vivax infected blood were collected from patent volunteers in Tak province, Thailandm and Mondulkiri province, Cambodia. Samples were collected by venipuncture into heparin tubes prior to replacement of patient serum with nonimmune AB human serum and feeding to laboratory-reared Anopheles dirus cracens or An. dirus A mosquitoes via water-jacket artificial membrane feeders or the Hemotek insect feeding system (Hemotek, Blackburn, UK) set to maintain the bloodmeal temperature at 37 °C. […] Cryopreserved human hepatocytes (BioIVT, Baltimore, Maryland, USA) were thawed into InVitroGro CP Medium (BioIVT), quantified for viability by trypan blue dye exclusion, diluted to 800–1000 live cells per microliter, and 18000 live cells were plated into each well of a collagen-coated 384-well plate (Greiner, Monroe, NC, USA) by a 16-channel pipet (Finnpipette, Thermo Fisher Scientific, Waltham, MA). […]
# P. cynomolgi hypnozoites = test system: P. cynomolgi hypnozoites; set-up: method as in PMID 4091527; conditions: cited from earlier work
# [4] = Metabolism in rat liver microsomes; assay type: in vitro ADME; conditions: 1 μM substrate, NADPH
# Protocol: as §1
# [5] = 0.4 mg/mL protein, relative to initial substrate concentration
smiles,measurement,setting,value
"CCN(CC)CCN(CCN(CC)CC)c1cc(OC)c(OC)cc1Br [Compound 1, 4-(2-bromo-4,5-dimethoxyphenyl)-1,1,7,7-tetraethyldiethylenetriamine]",microsomal CLint at 1 μM,[1],23 ± 4.7 µL/min/mg
same,prevention of infections / inhibition of relapses of P. vivax,P. vivax,did not prevent infections or inhibit relapses
same,tolerability,P. vivax,well-tolerated
same,average substrate depletion over a 60 min incubation,[2]; [5],<10%
same,microsomal CLint at 1 μM,"[2]; human, liver microsomes, 0.4 mg/mL microsomal protein, 37 °C, 60 min, average of three replicates, read-out: CLint",< 3 µL/min/mg
same,activity against schizonts or hypnozoites,[3],no activity
same,efficacy against hypnozoites relative to primaquine,P. cynomolgi hypnozoites,about 1 order of magnitude less effective than primaquine
same,hemolysis,P. cynomolgi hypnozoites,produced no hemolysis
same,toxicity relative to primaquine,P. cynomolgi hypnozoites,1 order of magnitude less toxic
same,average substrate depletion over a 60 min incubation,[4]; [5],~90%
same,microsomal CLint at 1 μM,"[4]; rat, liver microsomes, 0.4 mg/mL microsomal protein, 37 °C, 60 min, average of three replicates, read-out: CLint",100 ± 2.6 µL/min/mg

# Source: publication PMC9016807, “Metabolic, Pharmacokinetic, and Activity Profile of the Liver Stage Antimalarial (RC-12)” (ACS Omega, 2022)
